Experimental data: PubChem BioAssay (NCI)
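Exposure lasted 48 hours, with cells grown in 96-well plates and compounds tested at five concentrations. GI50 = concentration required for 50% inhibition of growth. Definition used: TGI = concentration required for complete inhibition of growth.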

Experiments:
Assay in all cases: inhibition of tumour cell growth, NCI panel, 48 h
COLO 205 colon = test system: COLO 205 colon
UO-31 renal = test system: UO-31 renal
OVCAR-3 ovarian = test system: OVCAR-3 ovarian
MALME-3M melanoma = test system: MALME-3M melanoma
DU-145 prostate = test system: DU-145 prostate
SN12C renal = test system: SN12C renal
HCT-15 colon = test system: HCT-15 colon
MDA-MB-231 breast = test system: MDA-MB-231 breast
HOP-92 NSCLC = test system: HOP-92 NSCLC
SK-OV-3 ovarian = test system: SK-OV-3 ovarian
K-562 leukemia = test system: K-562 leukemia
BT-549 breast = test system: BT-549 breast
ACHN renal = test system: ACHN renal
SNB-19 CNS = test system: SNB-19 CNS
SW-620 colon = test system: SW-620 colon
HCT-116 colon = test system: HCT-116 colon
HOP-62 NSCLC = test system: HOP-62 NSCLC
OVCAR-5 ovarian = test system: OVCAR-5 ovarian
T-47D breast = test system: T-47D breast
SK-MEL-28 melanoma = test system: SK-MEL-28 melanoma
EKVX NSCLC = test system: EKVX NSCLC
MCF7 breast = test system: MCF7 breast
SK-MEL-2 melanoma = test system: SK-MEL-2 melanoma
A498 renal = test system: A498 renal
SK-MEL-5 melanoma = test system: SK-MEL-5 melanoma
NCI-H460 lung = test system: NCI-H460 lung
UACC-62 melanoma = test system: UACC-62 melanoma
SR leukemia = test system: SR leukemia
M14 melanoma = test system: M14 melanoma
RPMI-8226 leukemia = test system: RPMI-8226 leukemia
LOX IMVI melanoma = test system: LOX IMVI melanoma
OVCAR-8 ovarian = test system: OVCAR-8 ovarian
PC-3 prostate = test system: PC-3 prostate
HT29 colon = test system: HT29 colon
CAKI-1 renal = test system: CAKI-1 renal
NCI-H23 lung = test system: NCI-H23 lung
NCI-H522 lung = test system: NCI-H522 lung
KM12 colon = test system: KM12 colon
U251 CNS = test system: U251 CNS
SNB-75 CNS = test system: SNB-75 CNS
TK-10 renal = test system: TK-10 renal
HCC-2998 colon = test system: HCC-2998 colon
OVCAR-4 ovarian = test system: OVCAR-4 ovarian
RXF 393 renal = test system: RXF 393 renal
MDA-MB-435 = test system: MDA-MB-435
SF-268 CNS = test system: SF-268 CNS
A549 NSCLC = test system: A549 NSCLC
NCI-H226 lung = test system: NCI-H226 lung
UACC-257 melanoma = test system: UACC-257 melanoma
IGROV1 ovarian = test system: IGROV1 ovarian
MOLT-4 leukemia = test system: MOLT-4 leukemia
SF-539 CNS = test system: SF-539 CNS
NCI/ADR-RES ovarian = test system: NCI/ADR-RES ovarian
HS 578T breast = test system: HS 578T breast
SF-295 CNS = test system: SF-295 CNS
786-0 renal = test system: 786-0 renal
HL-60(TB) leukemia = test system: HL-60(TB) leukemia
CCRF-CEM leukemia = test system: CCRF-CEM leukemia

## Brc1ccc2[nH]cc(-c3nn4cc(-c5nccs5)nc4s3)c2c1
COLO 205 colon
  GI50: 5.31 µM
  TGI: 21.9 µM
UO-31 renal
  GI50: 1.73 µM
  TGI: 6.57 µM
OVCAR-3 ovarian
  GI50: 2.58 µM
  TGI: 7.62 µM
MALME-3M melanoma
  GI50: 3.71 µM
  TGI: 12.1 µM
DU-145 prostate
  GI50: 5.39 µM
  TGI: 17.7 µM
SN12C renal
  GI50: 8.1 µM
  TGI: > 50.9 µM
HCT-15 colon
  GI50: 3.25 µM
  TGI: > 34.7 µM
MDA-MB-231 breast
  GI50: 1.82 µM
  TGI: 5.04 µM
HOP-92 NSCLC
  GI50: 1.77 µM
  TGI: 4.56 µM
SK-OV-3 ovarian
  GI50: 10.3 µM
  TGI: 26.3 µM
K-562 leukemia
  GI50: 2.84 µM
  TGI: 11.9 µM
BT-549 breast
  GI50: 3.22 µM
  TGI: 11.8 µM
ACHN renal
  GI50: 2.39 µM
  TGI: 7.4 µM
SNB-19 CNS
  GI50: 6.62 µM
  TGI: 22.6 µM
SW-620 colon
  GI50: 6.68 µM
  TGI: > 58.1 µM
HCT-116 colon
  GI50: 1.82 µM
  TGI: 3.44 µM
HOP-62 NSCLC
  GI50: 2.46 µM
  TGI: 11.2 µM
OVCAR-5 ovarian
  GI50: 5.88 µM
  TGI: 22.1 µM
T-47D breast
  GI50: 3.19 µM
  TGI: > 75.7 µM
SK-MEL-28 melanoma
  GI50: 9.15 µM
  TGI: > 59.3 µM
EKVX NSCLC
  GI50: 4.45 µM
  TGI: > 56.7 µM
MCF7 breast
  GI50: 3.23 µM
  TGI: > 35.5 µM
SK-MEL-2 melanoma
  GI50: 28.6 µM
  TGI: > 100 µM
A498 renal
  GI50: 16 µM
  TGI: 32 µM
SK-MEL-5 melanoma
  GI50: 3.86 µM
  TGI: 18 µM
NCI-H460 lung
  GI50: 2.51 µM
  TGI: 7.36 µM
UACC-62 melanoma
  GI50: > 57.7 µM
  TGI: > 100 µM
SR leukemia
  GI50: 5.21 µM
  TGI: > 50.7 µM
M14 melanoma
  GI50: 3.58 µM
  TGI: 16.1 µM
RPMI-8226 leukemia
  GI50: 2.25 µM
  TGI: 9.84 µM
LOX IMVI melanoma
  GI50: 2.41 µM
  TGI: 10.3 µM
OVCAR-8 ovarian
  GI50: 2.53 µM
  TGI: 6.77 µM
PC-3 prostate
  GI50: 2.36 µM
  TGI: 10.8 µM
HT29 colon
  GI50: 7.9 µM
  TGI: > 69.1 µM
CAKI-1 renal
  GI50: 2.46 µM
  TGI: 7.73 µM
NCI-H23 lung
  GI50: 2.49 µM
  TGI: 10.2 µM
NCI-H522 lung
  GI50: 9.76 µM
  TGI: 36.9 µM
KM12 colon
  GI50: 7.16 µM
  TGI: > 100 µM
U251 CNS
  GI50: 8.49 µM
  TGI: 21.3 µM
SNB-75 CNS
  GI50: 1.79 µM
  TGI: 7.94 µM
TK-10 renal
  GI50: 9.55 µM
  TGI: 24.2 µM
HCC-2998 colon
  GI50: 2.65 µM
  TGI: > 22.3 µM
OVCAR-4 ovarian
  GI50: 5.04 µM
  TGI: 14.9 µM
RXF 393 renal
  GI50: 2.32 µM
  TGI: 5.01 µM
MDA-MB-435
  GI50: 4.4 µM
  TGI: 20.1 µM
SF-268 CNS
  GI50: 7.98 µM
  TGI: 68.9 µM
A549 NSCLC
  GI50: 2.6 µM
  TGI: 7.52 µM
NCI-H226 lung
  GI50: 2.28 µM
  TGI: 8.95 µM
UACC-257 melanoma
  GI50: 10.5 µM
  TGI: > 62.5 µM
IGROV1 ovarian
  GI50: 2.58 µM
  TGI: 14.6 µM
MOLT-4 leukemia
  GI50: 2.58 µM
  TGI: > 100 µM
SF-539 CNS
  GI50: 3.14 µM
  TGI: 12.2 µM
NCI/ADR-RES ovarian
  GI50: 2.28 µM
  TGI: 7.1 µM
HS 578T breast
  GI50: 4.88 µM
  TGI: > 64 µM
SF-295 CNS
  GI50: 3 µM
  TGI: 9.89 µM
786-0 renal
  GI50: 2 µM
  TGI: 4.11 µM
HL-60(TB) leukemia
  GI50: 22.8 µM
  TGI: > 100 µM
CCRF-CEM leukemia
  GI50: 3.06 µM
  TGI: > 40 µM
